Test results reported in patent US20130040908A1, “SUBSTITUTION DERIVATIVES OF N6-BENZYLADENOSINE-5' -MONOPHOSPHATE, METHODS OF PREPARATION THEREOF, USE THEREOF AS MEDICAMENTS, AND THERAPEUTIC PREPARATIONS CONTAINING THESE COMPOUNDS” (BIOAPEX, S.R.O., priority 2010, published 2013).

Experiments:
[1] = test system: K-562 (human erythroleukemia); assay: Calcein AM cytotoxicity assay, K-562; format: cell-based; conditions: K-562, 72 hours
Excerpt: (§1) Because toxic compounds negatively influence metabolic processes in cells, many standard cytotoxicity assays are based on measurement of metabolisation rate of various artificial substrates. Resulting product is then quantified e.g. by means of spectrometry. The assays can be easily modified for use in 96-well plates. For evaluation of cytotoxic effect of the novel substituted 9-substituted cytokinin derivatives of this invention, a microtiter assay based on quantification of metabolisation of Calcein AM was used. The assay is widely used in drug screening programs and in chemosensitivity testing. In the living cells, Calcein AM is enzymatically hydrolysed and accumulation of resulting calcein is manifested by green fluorescence.
(§2) Normal human fibroblasts BJ were used as a control for routine screening of the compounds. The cells were kept in Nunc/Corning 80 cm^2 plastic bottles and grown in cell culture medium (DMEM containing 5 g/l glucose, 2 mM glutamine, 100 U/ml penicillin, 100 μg/ml streptomycine, 10% fetal bovine serum and sodium hydrogencarbonate), the compounds were prepared according to the procedure of the present invention.
(§3) The cell suspensions were prepared and diluted according to the particular cell type and the expected target cell density (2.500-30.000 cells per well based on cell growth characteristics) and pippetted (80 μl) into 96-well plates. […] Tested compound was added in total volume of 20 μl of water at time zero. Usually, test compound was evaluated at six 3-fold dilutions. […] All drug concentrations were tested in triplicates. […] At the end of incubation period Calcein AM in PBS was added into final concentration of 1 μg/ml. After another 1 hour of incubation fluorescence (FD) was measured with the Labsystem FIA Reader Fluoroscan Ascent (UK). Growth inhibition (GI) was estimated using the following equitation: GI=(mean FDdrug exposed wells−mean FDblank)/(mean FDcontrol wells−mean FDblank)×100%.

[2] = test system: CEM (T-lymphoblastoid leukemia); assay: Calcein AM cytotoxicity assay, CEM; format: cell-based; conditions: 72 hours
Excerpt: as §1, §2, §3

[3] = test system: HL-60 (promyelocytic leukemia); assay: Calcein AM cytotoxicity assay, HL60; format: cell-based, human; conditions: HL60, 72 hours
Excerpt: as §1, §2, §3

Human lymphocytes = assay: Immunosuppressive activity, 3H-thymidine incorporation in concanavalin A activated lymphocytes; format: cell-based; conditions: 72 hours, [3H]-TdR
Excerpt: One of the most important parameters of specific cellular immunity is the proliferative response of lymphocytes to antigens or polyclonal mitogens. The majority of normal mammalian peripheral lymphocytes comprise resting cells. Antigens or nonspecific polyclonal mitogens have the capacity to activate lymphoid cells and this is accompanied by dramatic changes of intracellular metabolism (mitochondrial activity, protein synthesis, nucleic acids synthesis, formation of blastic cells and cellular proliferation). […] Variety of in vitro assays was developed to measure proliferative response of lymphocytes. The most commonly used is ^3H-thymidine incorporation method.
During cell proliferation, DNA has to be replicated before the cell is divided into two daughter cells. This close association between cell doublings and DNA synthesis is very attractive for assessing cell proliferation. If labelled DNA precursors are added to the cell culture, cells that are about to divide incorporate the labelled nucleotide into their DNA. Traditionally, those assays usually involve the use of radiolabelled nucleosides, particularly tritiated thymidine ([^3H]-TdR). The amount of [^3H]-TdR incorporated into the cellular DNA is quantified by liquid scintillation counting. Human heparinized peripheral blood was obtained from healthy volunteers by cubital vein punction. The blood was diluted in PBS (1:3) and mononuclear cells were separated by centrifugation in Ficoll-Hypaque density gradient (Pharmacia, 1.077 g/ml) at 2200 rpm for 30 minutes. Following centrifugation, lymphocytes were washed in PBS and resuspended in cell culture medium (RMPI 1640, 2 mM glutamine, 100 U/ml penicillin, 100 μg/ml streptomycin, 10% fetal calf serum and sodium bicarbonate).
The cells were diluted at target density of 1.100.000 cells/ml and were added by pipette (180 μl) into 96-well microtiter plates. Four-fold dilutions of the intended test concentration were added at time zero in 20 μl aliquots to the microtiter plate wells. Usually, test compound was evaluated at six 4-fold dilutions. In routine testing, the highest well concentration was 266.7 μM. All drug concentrations were examined in duplicates. All wells with exception of unstimulated controls were activated with 50 of concanavalin A (25 μg/ml). Incubations of cells with test compounds lasted for 72 hours at 37° C., in 5% CO2 atmosphere and 100% humidity. At the end of incubation period, the cells were assayed by using the [^3H]-TdR:
Cell cultures were incubated with 0.5 μCi (20 μl of stock solution 500 μCi/ml per well for 6 hours at 37° C. and 5% CO2. The automated cell harvester was used to lyse cells in water and adsorb the DNA onto glass-fiber filters in the format of microtiter plate. The DNA incorporated [^3H]-TdR was retained on the filter while unincorporated material passes through. The filters were dried at room temperature overnight, sealed into a sample bag with 10-12 ml of scintillant. The amount of [^3H]-TdR present in each filter (in cpm) was determined by scintillation counting in a Betaplate liquid scintillation counter. The effective dose of immunosuppressant (ED) was calculated using the following equation: ED=(CCPMdrug exposed well/mean CCPMcontrol wells)×100%. The ED50 value, the drug concentration inhibiting proliferation of 50% of lymphocytes, was calculated from the obtained dose response curves.

MCF-7 (breast carcinoma) = assay: Calcein AM cytotoxicity assay, MCF7; format: cell-based; conditions: MCF7, 72 hours
Excerpt: as §1, §2, §3

SMILES | GI50 [1] | GI50 [2] | GI50 [3] | Human lymphocytes ED50 (Human lymphocytes) | GI50 (MCF-7 (breast carcinoma))
O=P(O)(O)OC[C@H]1O[C@@H](n2cnc3c(NCc4ccc(F)cc4Cl)ncnc32)[C@H](O)[C@@H]1O [2-chloro-4-fluorobenzylamino, 6-(2-chloro-4-fluorobenzylamino)purine riboside-5′-monophosphate] | 9.6 µM | 12.7 µM | 7.9 µM | – | –
O=P(O)(O)OC[C@H]1O[C@@H](n2cnc3c(NCc4cccc(Cl)c4O)ncnc32)[C@H](O)[C@@H]1O [2-hydroxy-3-chlorobenzylamino, 6-(2-hydroxy-3-chlorobenzylamino)purine riboside-5′-monophosphate] | – | – | – | 3.2 µM | –
COc1ccc(CNc2ncnc3c2ncn3[C@@H]2O[C@H](COP(=O)(O)O)[C@@H](O)[C@H]2O)c(O)c1 [2-hydroxy-4-methoxybenzylamino, 6-(2-hydroxy-4-methoxybenzylamino)purine riboside-5′-monophosphate] | – | – | – | 2.1 µM | –
O=P(O)(O)OC[C@H]1O[C@@H](n2cnc3c(NCc4ccc(O)c(O)c4)ncnc32)[C@H](O)[C@@H]1O [3,4-dihydroxybenzylamino, 6-(3,4-dihydroxybenzylamino)purine riboside-5′-monophosphate] | – | – | – | 9.4 µM | –
O=P(O)(O)OC[C@H]1O[C@@H](n2cnc3c(NCc4ccccc4F)ncnc32)[C@H](O)[C@@H]1O [Compound 1, 6-(2-fluorobenzylamino)purine riboside-5′-monophosphate] | 31.7 µM | 3.9 µM | 3.3 µM | 6.3 µM | –
O=P(O)(O)OC[C@H]1O[C@@H](n2cnc3c(NCc4ccccc4Cl)ncnc32)[C@H](O)[C@@H]1O [Compound 4, 6-(2-chlorobenzylamino)purine riboside-5′-monophosphate] | 56 µM | 1.9 µM | 1.4 µM | 8.7 µM | –
O=P(O)(O)OC[C@H]1O[C@@H](n2cnc3c(NCc4cccc(Cl)c4)ncnc32)[C@H](O)[C@@H]1O [Compound 5, 6-(3-chlorobenzylamino)purine riboside-5′-monophosphate] | 23.4 µM | 1.5 µM | 0.5 µM | 3.2 µM | –
O=P(O)(O)OC[C@H]1O[C@@H](n2cnc3c(NCc4ccc(Cl)cc4)ncnc32)[C@H](O)[C@@H]1O [Compound 6, 6-(4-chlorobenzylamino)purine riboside-5′-monophosphate] | 12.6 µM | 4.9 µM | – | 3.3 µM | –
O=P(O)(O)OC[C@H]1O[C@@H](n2cnc3c(NCc4ccccc4Br)ncnc32)[C@H](O)[C@@H]1O [Compound 7, 6-(2-bromobenzylamino)purine riboside-5′-monophosphate] | 9.7 µM | 2.3 µM | 5.9 µM | – | 45.6 µM
O=P(O)(O)OC[C@H]1O[C@@H](n2cnc3c(NCc4cccc(Br)c4)ncnc32)[C@H](O)[C@@H]1O [Compound 8, 6-(3-bromoobenzylamino)purine riboside-5′-monophosphate] | 19.1 µM | 5.1 µM | 4.2 µM | – | –
O=P(O)(O)OC[C@H]1O[C@@H](n2cnc3c(NCc4ccc(Br)cc4)ncnc32)[C@H](O)[C@@H]1O [Compound 9, 6-(4-bromobenzylamino)purine riboside-5′-monophosphate] | 49.9 µM | 17.6 µM | 41.3 µM | – | –
Cc1ccccc1CNc1ncnc2c1ncn2[C@@H]1O[C@H](COP(=O)(O)O)[C@@H](O)[C@H]1O [Compound 12, 6-(2-methylbenzylamino)purine riboside-5′-monophosphate] | – | 11.4 µM | 3.1 µM | 7.3 µM | 144 µM
COc1cccc(CNc2ncnc3c2ncn3[C@@H]2O[C@H](COP(=O)(O)O)[C@@H](O)[C@H]2O)c1 [Compound 16, 6-(3-methoxybenzylamino)purine riboside-5′-monophosphate] | 122 µM | 4.6 µM | 5.1 µM | – | 48.1 µM
O=P(O)(O)OC[C@H]1O[C@@H](n2cnc3c(NCc4ccc(O)cc4)ncnc32)[C@H](O)[C@@H]1O [Compound 23, 6-(4-hydroxybenzylamino)purine riboside-5′-monophosphate] | – | 19.4 µM | 9.7 µM | – | –
O=P(O)(O)OC[C@H]1O[C@@H](n2cnc3c(NCc4ccc(Cl)cc4Cl)ncnc32)[C@H](O)[C@@H]1O [Compound 24] | 81.5 µM | 81.2 µM | 72.4 µM | – | 122 µM
COc1cccc(CNc2ncnc3c2ncn3[C@@H]2O[C@H](COP(=O)(O)O)[C@@H](O)[C@H]2O)c1OC [Compound 31, 6-(2,3-dimethoxybenzylamino)purine riboside-5′-monophosphate] | – | – | 91 µM | – | –
COc1ccc(CNc2ncnc3c2ncn3[C@@H]2O[C@H](COP(=O)(O)O)[C@@H](O)[C@H]2O)c(OC)c1 [Compound 32, 6-(2,4-dimethoxybenzylamino)purine riboside-5′-monophosphate] | – | – | 41 µM | – | –
COc1cc(CNc2ncnc3c2ncn3[C@@H]2O[C@H](COP(=O)(O)O)[C@@H](O)[C@H]2O)cc(OC)c1 [Compound 34, 6-(3,5-dimethoxybenzylamino)purine riboside-5′-monophosphate] | – | – | 19.8 µM | – | –
O=P(O)(O)OC[C@H]1O[C@@H](n2cnc3c(NCc4ccc(F)cc4F)ncnc32)[C@H](O)[C@@H]1O [Compound 36, 6-(2,4-difluorobenzylamino)purine riboside-5′-monophosphate] | 5.9 µM | 4.9 µM | 2.8 µM | – | –
O=P(O)(O)OC[C@H]1O[C@@H](n2cnc3c(NCc4cc(F)cc(F)c4)ncnc32)[C@H](O)[C@@H]1O [Compound 37, 6-(3,5-difluorobenzylamino)purine riboside-5′-monophosphate] | – | 21.1 µM | 6.9 µM | – | –
O=P(O)(O)OC[C@H]1O[C@@H](n2cnc3c(NCc4ccc(F)c(F)c4F)ncnc32)[C@H](O)[C@@H]1O [Compound 38, 6-(2,3,4-trifluorobenzylamino)purine riboside-5′-monophosphate] | – | 58.6 µM | 11.3 µM | – | –
O=P(O)(O)OC[C@H]1O[C@@H](n2cnc3c(NCc4c(F)ccc(F)c4F)ncnc32)[C@H](O)[C@@H]1O [Compound 40, 6-(2,3,6-trifluorobenzylamino)purine riboside-5′-monophosphate] | – | – | 11.3 µM | – | –
O=P(O)(O)OC[C@H]1O[C@@H](n2cnc3c(NCc4ccc(F)c(Cl)c4)ncnc32)[C@H](O)[C@@H]1O [Compound 41, 6-(3-chloro-4-fluorobenzylamino)purine riboside-5′-monophosphate] | 4.3 µM | 1.4 µM | 3.1 µM | – | 99.1 µM
